Laboratory results reported in publication PMC3711460 (The Journal of neuroscience : the official journal of the …, 2013).

Tests used:
[1] = molecular target: T1, TAAR3 (Mus musculus, UniProt Q5QD16); assay type: cell-based
T1 sequence (Q5QD16 1-343): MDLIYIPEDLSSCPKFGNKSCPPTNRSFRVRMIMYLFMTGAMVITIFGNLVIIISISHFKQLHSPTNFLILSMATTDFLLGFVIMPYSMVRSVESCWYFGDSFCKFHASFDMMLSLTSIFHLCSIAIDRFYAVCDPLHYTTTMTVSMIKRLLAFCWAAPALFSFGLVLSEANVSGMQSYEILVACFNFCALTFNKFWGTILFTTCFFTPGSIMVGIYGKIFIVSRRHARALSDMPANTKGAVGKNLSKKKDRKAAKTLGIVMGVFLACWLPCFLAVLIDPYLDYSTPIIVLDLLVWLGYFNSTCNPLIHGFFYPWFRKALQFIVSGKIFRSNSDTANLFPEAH

[2] = molecular target: T2, human TAAR5 (Homo sapiens, UniProt O14804); assay type: cell-based
T2 sequence (O14804 1-337): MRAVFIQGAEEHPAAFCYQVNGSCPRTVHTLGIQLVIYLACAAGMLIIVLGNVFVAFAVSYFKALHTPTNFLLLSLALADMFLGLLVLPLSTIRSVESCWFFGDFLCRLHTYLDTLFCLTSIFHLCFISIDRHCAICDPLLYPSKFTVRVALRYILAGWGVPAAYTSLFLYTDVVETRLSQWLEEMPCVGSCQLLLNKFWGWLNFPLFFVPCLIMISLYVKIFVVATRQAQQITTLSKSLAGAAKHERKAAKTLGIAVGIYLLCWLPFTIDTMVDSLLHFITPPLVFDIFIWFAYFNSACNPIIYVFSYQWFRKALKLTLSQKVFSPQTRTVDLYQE

Row | SMILES | EC50 [1] [nM] | EC50 [2] [nM]
1 | NC1CCCCC1 [CHX, cyclohexylamine] | 270 | –
2 | CCN(C)C [DMEA, N,N-dimethylethylamine] | – | 1200 ± 600
3 | CC(C)CCN [IPA, isopentylamine] | 15 | –
